Assay results: ChEMBL document CHEMBL1201862, “PubChem BioAssay data set” (2004)
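Exposure lasted 48 hours, with cells grown in 96-well plates and compounds tested at five concentrations. GI50 is the concentration that inhibits growth by half.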 Activity calls are given as the source filed them. Rule as the data show it: active = GI50 up to about 1.1 µM and inactive = higher.

What was measured:
Assay in all cases: growth of human tumour cells (NCI), 48 h
ACHN = test system: ACHN
K562 = test system: K562
COLO 205 = test system: COLO 205
NCI-H460 = test system: NCI-H460
SNB-19 = test system: SNB-19
PC-3 = test system: PC-3
SN12C = test system: SN12C
M14 = test system: M14
SK-MEL-28 = test system: SK-MEL-28
OVCAR-3 = test system: OVCAR-3
SK-MEL-5 = test system: SK-MEL-5
786-0 = test system: 786-0
NCI-H23 = test system: NCI-H23
MOLT-4 = test system: MOLT-4
NCI/ADR-RES = test system: NCI/ADR-RES
MCF7 = test system: MCF7
UO-31 = test system: UO-31
U-251 = test system: U-251
LOX IMVI = test system: LOX IMVI
Malme-3M = test system: Malme-3M
HCT-116 = test system: HCT-116
NCI-H226 = test system: NCI-H226
SW-620 = test system: SW-620
CCRF-CEM = test system: CCRF-CEM
OVCAR-5 = test system: OVCAR-5
CAKI-1 = test system: CAKI-1
MDA-N = test system: MDA-N
MDA-MB-435 = test system: MDA-MB-435
T47D = test system: T47D
UACC-62 = test system: UACC-62
SNB-75 = test system: SNB-75
HCC 2998 = test system: HCC 2998
HCT-15 = test system: HCT-15
Hs-578T = test system: Hs-578T
HT-29 = test system: HT-29
EKVX = test system: EKVX
HOP-92 = test system: HOP-92
SK-OV-3 = test system: SK-OV-3
IGROV-1 = test system: IGROV-1
HOP-62 = test system: HOP-62
OVCAR-8 = test system: OVCAR-8
RPMI-8226 = test system: RPMI-8226
SR = test system: SR
SK-MEL-2 = test system: SK-MEL-2
SF-295 = test system: SF-295
DU-145 = test system: DU-145
RXF 393 = test system: RXF 393
NCI-H522 = test system: NCI-H522
OVCAR-4 = test system: OVCAR-4
BT-549 = test system: BT-549
UACC-257 = test system: UACC-257
A498 = test system: A498
HL-60 = test system: HL-60
MDA-MB-231 = test system: MDA-MB-231
SF-268 = test system: SF-268
SF-539 = test system: SF-539
KM12 = test system: KM12
A549 = test system: A549
TK-10 = test system: TK-10

`CCO/C=N/C1=C(C#N)C(c2ccc(Cl)cc2)c2c(-c3ccccc3)nn(-c3ccccc3)c2O1` (stereo not drawn) was tested, and the GI50 (ACHN) was 8.51 µM (inactive), the GI50 (K562) was 7.78 µM (inactive) and the GI50 (COLO 205) was 5.27 µM (inactive). The GI50 (NCI-H460) was 7.69 µM (inactive), the GI50 (SNB-19) was 12.7 µM (inactive) and the GI50 (PC-3) was 4.28 µM (inactive). The GI50 (SN12C) was 12.2 µM (inactive), the GI50 (M14) was 4.58 µM (inactive) and the GI50 (SK-MEL-28) was 11.7 µM (inactive). For the same compound, the GI50 (OVCAR-3) was 3.72 µM (inactive), the GI50 (SK-MEL-5) was > 10 µM (inactive) and the GI50 (786-0) was 10.2 µM (inactive). For the same compound, the GI50 (NCI-H23) was 5.15 µM (inactive), the GI50 (MOLT-4) was 6.93 µM (inactive) and the GI50 (NCI/ADR-RES) was 9.86 µM (inactive). For the same compound, the GI50 (MCF7) was 3.81 µM (inactive), the GI50 (UO-31) was 11.6 µM (inactive) and the GI50 (U-251) was 8.55 µM (inactive). For the same compound, the GI50 (LOX IMVI) was 9.62 µM (inactive), the GI50 (Malme-3M) was 12.3 µM (inactive) and the GI50 (HCT-116) was 7.5 µM (inactive). The GI50 (NCI-H226) was 15.7 µM (inactive), the GI50 (SW-620) was 12.9 µM (inactive) and the GI50 (CCRF-CEM) was 5.73 µM (inactive). For the same compound, the GI50 (OVCAR-5) was 23.7 µM (inactive), the GI50 (CAKI-1) was 15.7 µM (inactive) and the GI50 (MDA-N) was 14.7 µM (inactive). The GI50 (MDA-MB-435) was 12.4 µM (inactive), the GI50 (T47D) was > 61.9 µM (inactive) and the GI50 (UACC-62) was 12.2 µM (inactive). For the same compound, the GI50 (SNB-75) was 6.81 µM (inactive), the GI50 (HCC 2998) was 7.16 µM (inactive) and the GI50 (HCT-15) was 5.43 µM. For the same compound, the GI50 (Hs-578T) was 6.12 µM (inactive), the GI50 (HT-29) was 7.53 µM (inactive) and the GI50 (EKVX) was 13.9 µM (inactive). The GI50 (HOP-92) was 5.42 µM (inactive), the GI50 (SK-OV-3) was 14.3 µM (inactive) and the GI50 (IGROV-1) was 8.93 µM (inactive). The GI50 (HOP-62) was 19.1 µM (inactive), the GI50 (OVCAR-8) was 14 µM (inactive) and the GI50 (RPMI-8226) was 6.53 µM (inactive). For the same compound, the GI50 (SR) was 5.5 µM (inactive), the GI50 (SK-MEL-2) was 11.7 µM (inactive) and the GI50 (SF-295) was 7.43 µM (inactive). For the same compound, the GI50 (DU-145) was 16 µM (inactive), the GI50 (RXF 393) was 7.03 µM (inactive) and the GI50 (NCI-H522) was 3.77 µM (inactive). The GI50 (OVCAR-4) was 11.4 µM (inactive), the GI50 (BT-549) was 14.1 µM (inactive) and the GI50 (UACC-257) was 11.8 µM (inactive). For the same compound, the GI50 (A498) was 13.4 µM (inactive), the GI50 (HL-60) was 5.66 µM (inactive) and the GI50 (MDA-MB-231) was 21.6 µM (inactive). The GI50 (SF-268) was 7.87 µM (inactive), the GI50 (SF-539) was 6.14 µM (inactive) and the GI50 (KM12) was 5.09 µM (inactive). For the same compound, the GI50 (A549) was 5.73 µM (inactive) and the GI50 (TK-10) was 7.19 µM (inactive).

In the case of `CCCCCC(=O)OC[n+]1ccc(-c2c(COC(=O)NC(C)C)c(COC(=O)NC(C)C)c3n2CCC3)cc1`, the GI50 (ACHN) is reported as 50.9 µM (inactive), the GI50 (K562) is reported as > 100 µM (inactive) and the GI50 (COLO 205) is reported as > 100 µM (inactive). For the same compound, the GI50 (NCI-H460) was 72.3 µM (inactive), the GI50 (SNB-19) was > 100 µM (inactive) and the GI50 (PC-3) was > 100 µM (inactive). The GI50 (SN12C) was > 100 µM (inactive), the GI50 (M14) was > 100 µM (inactive) and the GI50 (SK-MEL-28) was > 100 µM (inactive). The GI50 (OVCAR-3) was > 100 µM (inactive), the GI50 (SK-MEL-5) was > 100 µM (inactive) and the GI50 (786-0) was > 92 µM (inactive). The GI50 (NCI-H23) was > 100 µM (inactive), the GI50 (MOLT-4) was 35.9 µM (inactive) and the GI50 (NCI/ADR-RES) was > 100 µM (inactive). For the same compound, the GI50 (MCF7) was 77.1 µM (inactive), the GI50 (UO-31) was > 100 µM (inactive) and the GI50 (U-251) was > 100 µM (inactive). The GI50 (LOX IMVI) was > 100 µM (inactive), the GI50 (Malme-3M) was > 100 µM (inactive) and the GI50 (HCT-116) was > 100 µM (inactive). The GI50 (NCI-H226) was > 100 µM (inactive), the GI50 (SW-620) was > 100 µM (inactive) and the GI50 (CCRF-CEM) was 43.2 µM (inactive). For the same compound, the GI50 (OVCAR-5) was > 100 µM (inactive), the GI50 (CAKI-1) was 49.5 µM (inactive) and the GI50 (MDA-N) was > 100 µM (inactive). For the same compound, the GI50 (MDA-MB-435) was > 100 µM (inactive), the GI50 (T47D) was > 100 µM (inactive) and the GI50 (UACC-62) was 26.5 µM (inactive). For the same compound, the GI50 (SNB-75) was > 100 µM (inactive), the GI50 (HCC 2998) was > 100 µM (inactive) and the GI50 (HCT-15) was over 100 µM. For the same compound, the GI50 (Hs-578T) was > 100 µM (inactive), the GI50 (HT-29) was > 100 µM (inactive) and the GI50 (EKVX) was > 100 µM (inactive). The GI50 (HOP-92) was > 100 µM (inactive), the GI50 (SK-OV-3) was > 100 µM (inactive) and the GI50 (IGROV-1) was > 100 µM (inactive). For the same compound, the GI50 (HOP-62) was > 100 µM (inactive), the GI50 (OVCAR-8) was > 100 µM (inactive) and the GI50 (RPMI-8226) was > 100 µM (inactive). For the same compound, the GI50 (SR) was 16.9 µM (inactive), the GI50 (SK-MEL-2) was > 100 µM (inactive) and the GI50 (SF-295) was > 100 µM (inactive). For the same compound, the GI50 (DU-145) was > 35.5 µM (inactive), the GI50 (RXF 393) was > 100 µM (inactive) and the GI50 (NCI-H522) was > 100 µM (inactive). The GI50 (OVCAR-4) was > 100 µM (inactive), the GI50 (BT-549) was > 100 µM (inactive) and the GI50 (UACC-257) was > 100 µM (inactive). The GI50 (A498) was > 100 µM (inactive), the GI50 (HL-60) was 37.3 µM (inactive) and the GI50 (MDA-MB-231) was > 100 µM (inactive). The GI50 (SF-268) was > 94.6 µM (inactive), the GI50 (SF-539) was > 100 µM (inactive) and the GI50 (KM12) was > 100 µM (inactive). The GI50 (A549) was > 100 µM (inactive) and the GI50 (TK-10) was > 100 µM (inactive).
